These results are taken from patent publication US9963433B2, “Anticancer drugs including the chemical structures of an androgen receptor ligand and a histone deacetylase inhibitor” (Wayne State University, priority 2016, dated 2018).

For assay [1], the system named is AR chromatin association at KLK3 ARE enhancer elements. Briefly: ChIP of AR at KLK3 enhancer in C4-2 cells. The settings on record: compound 10 μM, R1881 1 nM or 10 nM, 2 h, FIG. 3C.
Description: (3C) C4-2 cells plated in hormone-depleted medium were treated with either vehicle, R1881, or the indicated compound for 2 h. Cells were harvested and subjected to ChIP using AR antibody. Taqman probes targeting ARE enhancer elements associated with the KLK3 gene were used to quantify the immunoprecipitated chromatin.
Chromatin Immunoprecipitation (ChIP). […] The ChIP signals were measured by quantitative real time PCR analysis of the immunoprecipitated products.
As a target site for the ChIP assay, the well-established AR binding enhancer elements located 4 kb upstream of the transcription initiation site of the KLK3 gene was chosen.
Assay [2] relates to 55 KDa polypeptide (putative Hsp90 fragment). As to the kind of experiment: Western blot of acetylated lysine in C4-2 cells. To be noted: 24 h, acetylated lysine antibody, FIG. 4C.
Description: (§8) Cells were then harvested for western blot analysis using antibody to AR (4A), HSP90 (4B), Acetyl-Lysine (4C) or GAPDH (loading control). ImageJ software was used to determine the intensities of the bands relative to the vehicle control for each protein. The values were then divided by the values for GAPDH within the same samples.
(§9) Western Blot Analysis. Cells were washed once with phosphate buffered saline (PBS) and then lysed with RIPA buffer (150 mM NaCl, 1% Nonidet P-40, 0.5% sodium deoxycholate, 0.1% SDS, 50 mM Tris of pH 8.0) containing a protease inhibitor cocktail (Pierce, Thermo Fisher Scientific). The cell lysates were then incubated on ice for 40 minutes. Total protein concentrations were estimated using the Bradford Assay (Bio-Rad). Protein samples (10-40 ug) were heated at 95° C. for 5 minutes and resolved by electrophoresis on 8% polyacrylamide-SDS gels and electrophoretically transferred to PVDF membranes (Millipore, Billerica, Mass.). The membranes were then probed overnight at 4° C. with the appropriate primary antibody followed by the appropriate horseradish peroxidase-conjugated secondary antibody.
Assay [3] relates to C4-2 cells. Briefly: MTT cell viability assay, C4-2 cells. It counts as cell-based. To be noted: C4-2 cells; 5 μM; MTT Day 3 relative to Day 0; FIG. 6C. On the procedure:
(6A) C4-2 cells were seeded in 96-well plates and 24 h later, they were treated with the indicated compounds (0.1 μM-10 μM) or with vehicle (DMSO). Cell viability was measured by the MTT assay on Days 0 and 3 of treatment. EC50 values were calculated from nonlinear regression plots using GraphPad Prism5 software. […] Cell viability was measured by the MTT assay on Days 0 and 3 of treatment. […] Cell viability was measured by the MTT assay on Days 0 and 3 of treatment. […] (6D) 22Rv1 cells were infected with AR shRNA lentivirus, or control shRNA. 72 h after infection, cells were plated and viable cells were measured by the MTT assay on the indicated days (6D, bottom). Cells were also harvested for western blot analysis and probed with antibody to AR, which was also reactive with the AR splice variant AR-V7 (6D, top). (6E) 22Rv1 cells were seeded in 96-well plates and 24 h later, they were treated with the indicated compounds (0.1 μM-10 μM) or with vehicle (DMSO). Cell viability was measured by the MTT assay on Days 0 and 3 of treatment. EC50 values were calculated from nonlinear regression plots using GraphPad Prism5 software.
Cell Proliferation Assay. Cells were trypsinized and 6000 cells/well were seeded in 96-well plates coated with poly-D-lysine. The cells were seeded in phenol red-free medium supplemented with 10% FBS, 100 units/ml penicillin, 100 μg/ml streptomycin, 2 mM L-glutamine mixture and sodium pyruvate (1 mM) for C4-2 cells and phenol red-free medium supplemented with 10% FBS, 100 units/ml penicillin, 100 μg/ml streptomycin and 2 mM L-glutamine mixture for 22Rv1 cells. The cells were grown at 37° C. in 5% CO2. Twenty four hours after seeding in the 96-well plates, the cells were treated with indicated compound or DMSO (vehicle). The culture medium was not changed during the time course of the assay. On Day zero and on Day 3, cell viability was determined using the MTT assay. MTT (10 μL, 5 mg/mL) was added to each well and incubated for 2 h at 37° C. The formazan crystal sediments were dissolved in 100 μL of DMSO, and the absorbance at 570 nm was measured using the BioTek Synergy 2 Microplate Reader (BioTek, Winooski, Vt.). […] IC50 values were calculated from nonlinear […] plots using GraphPad Prism5 software.

In assay [4] the test system is DLC1 mRNA in C4-2 cells. Briefly: In situ HDACi activity: DLC1 mRNA in C4-2 cells. Format: cell-based. To be noted: 48 h, normalized to GAPDH mRNA, FIG. 2F. As for the experimental part: (§1) FIGS. 2A-2F show measurement of intrinsic and in situ HDACi activities. […]. IC50 values were calculated from nonlinear regression plots using GraphPad Prism5 software. (2B) Enz, 1002 and 3-52 were tested against HeLa cell nuclear extract at 10 μM and 25 μM and TSA (1 μM) was used as positive control. […] Recombinant HDAC6 was incubated with each drug at the indicated concentrations. IC50 values were calculated from nonlinear regression plots using GraphPad Prism5 software. (2D) Enz, 1002 and 3-52 were tested against recombinant HDAC6 at 10 μM and 25 μM and TSA (1 μM) was used as positive control. […]
(§2) Cell Culture and Reagents. LNCaP and 22Rv1 cell lines were from American Type Culture Collection (Manassas, Va.). C4-2 cells were kindly provided by Dr. Edwin Sanchez (University of Toledo). LNCaP and C4-2 cells were routinely grown at 37° C. in 5% CO2 in RPMI 1640 medium supplemented with 10% FBS (Invitrogen); 100 units/ml penicillin, 100 μg/ml streptomycin, 2 mM L-glutamine mixture (Invitrogen); and sodium pyruvate (1 mM) (Invitrogen). 22Rv1 cells were grown in RPMI 1640 medium supplemented with 10% FBS (Invitrogen); 100 units/ml penicillin, 100 μg/ml streptomycin, 2 mM L-glutamine mixture (Invitrogen). Affinity-purified rabbit anti-human antibody to AR (sc-816) and mouse anti-human antibody to GAPDH (sc-47724) were purchased from Santa Cruz Biotechnology (Santa Cruz, Calif.). Affinity-purified rabbit anti-human antibody to Hsp90 (C45G5) #4877 and rabbit anti-human antibody to acetylated lysine #9441 were purchased from Cell Signaling Technology. R1881 was kindly provided by Dr. Stephan Patrick (Karmanos Cancer Institute). All experiments were conducted using phenol-red free growth media. For hormone depletion, cells were grown in phenol-red free RPMI 1640 medium supplemented with 10% charcoal stripped FBS (Sigma-Aldrich) which was heat inactivated at 56° C. for thirty minutes, and a mixture of 100 units/ml penicillin, 100 μg/ml streptomycin and 2 mM L-glutamine for 96 h.
(§3) RNA isolation, Reverse Transcription, and Real Time PCR. Total RNA was isolated from cells using the RNeasy Mini Kit (Qiagen). Reverse transcription PCR was then performed using 500 ng of total RNA with random primers and using the high-capacity complementary DNA Archive kit (Applied Biosystems). The complementary DNA from this reaction was measured using quantitative real time PCR using the StepONE Plus Real Time PCR system (Life Technologies Corporation, Carlsbad, Calif.). All reactions were performed in triplicate and normalized to glyceraldehyde-3-phosphate-dehydrogenase values in the same samples. All primers and Taqman probes were purchased from the applied Biosystems inventory (Invitrogen) (Patki et al., 2015).
. […]

For assay [5], the system named is DLC1 mRNA in LNCaP cells. As to the kind of experiment: In situ HDACi activity: DLC1 mRNA in LNCaP cells. To be noted: 10 μM, 48 h, normalized to GAPDH mRNA, FIG. 2E. It counts as cell-based. On the procedure: as §1, §2, §3
. […]

For assay [6], the system named is p21 mRNA in C4-2 cells. Briefly: p21 mRNA induction in C4-2 cells. The settings on record: 48 h, FIG. 5B.
The subject of assay [7] is p21 mRNA in LNCaP cells. As to the kind of experiment: p21 mRNA induction in LNCaP cells. The settings on record: 10 μM, 48 h, FIG. 5A.
Assay [8] has as its system Hsp90. As to the kind of experiment: Western blot of Hsp90 protein in C4-2 cells. To be noted: 1 μM to 10 μM, 24 h, relative to GAPDH, FIG. 4B. On the technique in general: Immunoblotting shows a protein as a band on a membrane.
Description: as §8, §9
The subject of assay [9] is KLK3 mRNA (AR target gene) in C4-2 cells. Briefly: Inhibition of R1881 activation of KLK3 mRNA in C4-2 cells. It counts as cell-based. To be noted: hormone depleted 96 h, R1881 1 nM, compound 1-10 μM, 48 h, FIG. 3A. On the procedure:
(§4) Cell Culture and Reagents. LNCaP and 22Rv1 cell lines were from American Type Culture Collection (Manassas, Va.). C4-2 cells were kindly provided by Dr. Edwin Sanchez (University of Toledo). […] R1881 was kindly provided by Dr. Stephan Patrick (Karmanos Cancer Institute). All experiments were conducted using phenol-red free growth media.
as §3, with “samples.” for “samples. All primers and Taqman probes were purchased from the applied Biosystems inventory (Invitrogen) (Patki et al., 2015).”

Assay [10] relates to TMPRSS2 mRNA (AR target gene) in C4-2 cells. Briefly: Inhibition of R1881 activation of TMPRSS2 mRNA in C4-2 cells. The settings on record: hormone depleted 96 h, R1881 1 nM, compound 1-10 μM, 48 h, FIG. 3B. It counts as cell-based. On the procedure: as §4
as §3, with “samples.” for “samples. All primers and Taqman probes were purchased from the applied Biosystems inventory (Invitrogen) (Patki et al., 2015).”

In assay [11] the target is T1, human recombinant HDAC6 (Homo sapiens, UniProt Q9UBN7).
T1 construct: purchased Enzo Life Sciences BML-AK516
T1 sequence (Q9UBN7 1-1215): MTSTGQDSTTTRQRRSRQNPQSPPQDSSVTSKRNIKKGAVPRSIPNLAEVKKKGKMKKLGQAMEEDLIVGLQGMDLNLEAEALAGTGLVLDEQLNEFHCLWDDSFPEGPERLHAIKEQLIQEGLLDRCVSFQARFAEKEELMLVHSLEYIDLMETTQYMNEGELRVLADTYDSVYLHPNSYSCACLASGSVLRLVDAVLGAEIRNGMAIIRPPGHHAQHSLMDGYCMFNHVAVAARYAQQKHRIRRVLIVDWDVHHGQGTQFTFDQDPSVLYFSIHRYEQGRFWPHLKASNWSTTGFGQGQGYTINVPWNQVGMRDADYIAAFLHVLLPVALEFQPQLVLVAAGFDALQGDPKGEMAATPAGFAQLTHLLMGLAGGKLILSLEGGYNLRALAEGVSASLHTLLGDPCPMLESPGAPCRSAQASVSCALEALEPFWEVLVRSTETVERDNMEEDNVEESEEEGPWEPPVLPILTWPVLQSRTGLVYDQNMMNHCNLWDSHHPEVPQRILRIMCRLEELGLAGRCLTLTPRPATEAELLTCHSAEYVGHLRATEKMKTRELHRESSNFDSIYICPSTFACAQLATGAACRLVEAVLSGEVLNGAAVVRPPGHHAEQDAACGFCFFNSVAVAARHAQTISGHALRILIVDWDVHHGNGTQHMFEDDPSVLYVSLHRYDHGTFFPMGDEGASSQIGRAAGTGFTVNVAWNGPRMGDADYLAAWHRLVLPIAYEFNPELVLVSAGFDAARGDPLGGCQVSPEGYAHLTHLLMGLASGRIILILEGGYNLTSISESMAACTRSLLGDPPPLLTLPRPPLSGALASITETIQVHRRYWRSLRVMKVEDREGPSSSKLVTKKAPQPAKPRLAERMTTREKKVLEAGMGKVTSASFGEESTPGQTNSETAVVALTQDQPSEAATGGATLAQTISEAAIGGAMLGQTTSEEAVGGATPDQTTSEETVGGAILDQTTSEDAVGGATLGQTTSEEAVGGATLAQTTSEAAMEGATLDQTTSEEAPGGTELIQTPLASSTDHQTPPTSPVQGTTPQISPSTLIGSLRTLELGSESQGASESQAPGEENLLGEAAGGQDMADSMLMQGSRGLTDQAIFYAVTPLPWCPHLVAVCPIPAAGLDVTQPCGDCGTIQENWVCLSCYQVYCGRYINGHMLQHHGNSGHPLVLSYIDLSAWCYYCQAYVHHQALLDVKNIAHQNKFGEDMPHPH
As to the kind of experiment: HDAC6 fluorometric assay, recombinant enzyme. To be noted: tested at 10 μM and 25 μM; FIG. 2D. Format: biochemical. As for the experimental part:
(§5) FIGS. 2A-2F show measurement of intrinsic and in situ HDACi activities. […] IC50 values were calculated from nonlinear regression plots using GraphPad Prism5 software. […] Recombinant HDAC6 was incubated with each drug at the indicated concentrations. IC50 values were calculated from nonlinear regression plots using GraphPad Prism5 software.
(§6) HDAC activity assay. In vitro HDAC inhibition was measured by using the HDAC fluorimetric assay/drug discovery Kit (Enzo Life Sciences, BML-AK500) and the HDAC6 fluorometric drug discovery kit (Enzo Life Sciences, BML-AK516) following the manufacturer's protocols and instructions. IC50 values were calculated from nonlinear […] plots using GraphPad Prism5 software.
(§7) HDAC1 and HDAC2 are enriched in nuclear extracts whereas HDAC6 is a cytosolic enzyme that is the principal modulator of the acetylation status of Hsp90. […] Again, TSA served as the positive control in FIG. 2D.

Assay [12] has as its system HDACs from Hela cell nuclear extract. Format: biochemical. To be noted: HeLa cell nuclear extract; tested at 10 μM and 25 μM; FIG. 2B. As for the experimental part:
as §5, §6, §7

Regarding `C[C@]1(O)CC[C@H]2[C@@H]3CCC4=CC(=O)CCC4=C3C=C[C@@]21C` [androgen, R1881], in assay [1], the “chromatin association of AR (ChIP signal)” value is given as “strongly stimulated chromatin association of AR”.

Regarding `O=C(CCCCCCC(=O)Nc1ccccc1)NO` [SAHA, suberanilohydroxamic acid, reference compound], the “hyper-acetylation of a 55 KDa polypeptide” value in assay [2] was “hyper-acetylation of a 55 KDa polypeptide”. Moreover, in [3], the “cell death (viable cells below the number on Day 0)” value is listed as “caused cell death”. The “DLC1 mRNA expression” value in [4] and in [5] was “strongly up-regulated” in each case. In addition, the “chromatin association of AR (ChIP signal)” value in [1] is given as “basal ChIP signal”. Moreover, the “p21 mRNA expression” value in assay [6] and in assay [7] was “induced p21 mRNA” throughout. For the same molecule, the “Hsp90 protein level (degradation)” value in [8] is on record as “a decrease in Hsp90 was evident at the higher doses”.

`COC(=O)CCCCCCNC(=O)c1ccc(N2C(=S)N(c3ccc(C#N)c(C(F)(F)F)c3)C(=O)C2(C)C)cc1F` [Compound 3-52, Methyl-7-(4-(3-(4-cyano-3-(trifluoromethyl)phenyl)-5,5-dimethyl-4-oxo-2-thioxoimidazolidin-1-yl)-2-fluorobenzamido)heptanoate]: the “inhibition of activation of KLK3 by R1881” value in assay [9] was “comparable to Enz”. In addition, the “inhibition of activation of TMPRSS2 by R1881” value in [10] is “comparable to Enz”. Besides, the “inhibitory activity against HDAC6” value in assay [11] was “did not show significant inhibitory activity”. Moreover, in assay [12], the “inhibition of nuclear HDAC activity” value was “did not inhibit nuclear HDAC activity even up to a concentration of 25 μM”.
